Patent US20050059718A1, “Methods of using zonisamide as an adjunctive therapy for partial seizures” (priority 2003, published 2005)
Entries after “also recorded” stand apart in the source; their conditions may differ.

Columns and labels:
[1] = patients; cited from earlier work
[2] = Source text: The clinical manifestations of myeloma vary from smoldering myeloma to symptomatic plasma cell dyscrasia. A lot of variables, alone or in combination, have been used as a discriminating index of malignant proliferation of B-lymphocytes or plasma cells.
liver enzymes = conditions: cited from earlier work
sodium channels = conditions: in vitro; cited from earlier work
[3] = patients on regular dosages; cited from earlier work
T-type Ca2+ currents = conditions: in vitro; cited from earlier work
[4] = test system: dopaminergic and serotonergic neurotransmission; conditions: in vivo microdialysis; cited from earlier work
[5] = test system: cultured mouse spinal cord neurons; conditions: 10-30 μg/mL, cited from earlier work
[6] = cited from earlier work
[7] = test system: GABA/benzodiazepine receptor ionophore complex; conditions: in vitro; no change in chloride flux; cited from earlier work
carbonic anhydrase = conditions: relative to acetazolamide; cited from earlier work
rat hippocampal slices = conditions: 10-30 μg/mL; cited from earlier work

CCC1(c2ccccc2)C(=O)NCNC1=O [primidone]
association with multiple myeloma [1]: associated with development of MM

NC(=O)N1c2ccccc2C=Cc2ccccc21 [Carbamazepine]
association with multiple myeloma [1]: associated with development of MM

NS(=O)(=O)Cc1noc2ccccc12 [zonisamide, 1,2-benzisoxazole-3-methanesulfonamide]
Bence-Jones protein in urine ([2]; human, in vivo): not demonstrated | M-protein concentration ([2]; human, in vivo): > 3.5 g/dL | bone marrow chromosomal analysis ([2]; human, in vivo): normal karyotype of 46 XY | diagnosis ([2]; human, in vivo): smoldering multiple myeloma | helper T cell count (CD4) ([2]; human, in vivo): normal | peripheral blood examination ([2]; human, in vivo): no cytopenia | serum IgA ([2]; human, in vivo): 40 mg/dL | serum IgM ([2]; human, in vivo): 38 mg/dL | serum creatinine, calcium and beta2-microglobulin ([2]; human, in vivo): not elevated | serum immunoglobulin G (IgG) ([2]; human, in vivo): 3.68 g/dL | serum protein immunoelectrophoresis ([2]; human, in vivo): M-protein composed of IgG with a single lambda type of L-chain | liver (hepatic) enzyme induction (liver enzymes): not known to be a hepatic enzyme inducer; also recorded: no liver enzyme inducing activity | effect on sodium channels (sodium channels): blocks sodium channels | correlation between dosage or serum level and immunoglobulin levels [3]: no significant correlation | effect on voltage-dependent, transient inward currents (T-type Ca2+ currents) (T-type Ca2+ currents): reduces voltage-dependent, transient inward currents | dopaminergic and serotonergic neurotransmission [4]: facilitates both dopaminergic and serotonergic neurotransmission | postsynaptic GABA or glutamate responses ([5]; cultured mouse spinal cord neurons): without affecting postsynaptic GABA or glutamate responses | synaptically-driven electrical activity [5]: suppresses synaptically-driven electrical activity | half-life ([6]; in vivo): long half-life | time required to achieve steady-state levels ([6]; upon reaching a stable dose or following dosage adjustment): up to two weeks | binding to GABA/benzodiazepine receptor ionophore complex [7]: binds to the GABA/benzodiazepine receptor ionophore complex in an allosteric fashion | carbonic anhydrase inhibiting activity, inhibition compared to acetazolamide (carbonic anhydrase): 1/50 | neuronal or glial uptake of [3H]-GABA (rat hippocampal slices): without affecting

CCCC(CCC)C(=O)[O-].[Na+] [sodium valproate]
seizure control after replacing zonisamide ([2]; 13-month follow-up): prevented convulsions

O=C1NC(=O)C(c2ccccc2)(c2ccccc2)N1 [phenyloin]
association with multiple myeloma [1]: implicated in several incidents of multiple myeloma
